We go through four molecules from patent US8765777B2, “Compositions and methods of use for tyrosine kinase inhibitors to treat pathogenic infection” (priority 2008, dated 2014).

Series [1] relates to Abl-tyrosine family kinases. The following applies: Shah et al. (2004) Science 305:399-401; cited from earlier work.
A further series concerns EPEC (strain 2389/69). Description: EPEC actin pedestal formation on 3T3 cells. It is filed as cell-based, enteropathogenic E. coli.
Another series concerns VV (strain WR). It is filed as cell-based, Vaccinia virus.
Series [2] has as its system VV. Conditions: 100 mg/kg/day via subcutaneous osmotic pump, 10^4 pfu VV intraperitoneally, four days post infection; FIG. 4.
A further series concerns HIV-1 Bal. Description: p24 production of macrophages infected with HIV-1 Bal. Type of series: cell-based.
Series [3] deals with VV extracellular enveloped virus (EEV). It is filed as cell-based, Vaccinia virus.
Series [4] is described as follows: Tolerability of the drugs in uninfected mice.
Series [5] concerns VV. Type of series: cell-based, Vaccinia virus.
The test system of series [6] is Mycobacterium tuberculosis (TB). It is filed as cell-based.
The next series concerns GFP-VV. It is filed as cell-based, Vaccinia virus.
Where [7] appears, read: up to 100 mg/kg/day i.p., 10 day period.

Entries after “also recorded” stand apart in the source; their conditions may differ.

For `Cc1nc(Nc2ncc(C(=O)Nc3c(C)cccc3Cl)s2)cc(N2CCN(CCO)CC2)n1` [BMS-354825, N-(2-chloro-6-methylphenyl)-2-(6-(4-(2-hydroxyethyl)piperazin-1-yl)-2-methylpryimidin-4-ylamino)thiazole-5-carboxamide], the “potency relative to STI-571” value in series [1] is “two-log increased potency”.
Turning to `CC(C)(C)n1nc(-c2ccc(Cl)cc2)c2c(N)ncnc21` [PP2], the “pedestals in Abl−/−/Arg−/− cells” value in the series with EPEC (strain 2389/69) (Abl−/−/Arg−/− cells) was “not”. The pedestal formation entry in the series on EPEC (strain 2389/69) (concentrations up to 100 μM, the highest tested) is “without effect”. Further, in the series on VV (strain WR), the “concentrations that blocked actin tails” value was not below 25 µM.
Regarding `Cc1ccc(NC(=O)c2ccc(CN3CCN(C)CC3)cc2)cc1Nc1nccc(-c2cccnc2)n1` [STI-571, 4-[(4-Methyl-1-piperazinyl)methyl]-N-[4-methyl-3-[[4-(3-pyridinyl)-2-pyrimidinyl]amino]-phenyl]benzamide methanesulfonate], the EPEC pedestal formation result with EPEC (strain 2389/69) (25 μM) is on record as “did not”. Further, the “reduction of viral load (copies of VV UDG gene per 250 ng DNA of ovary)” value in the series on VV [2] is 4-5 logs. Besides, in the series on VV (strain WR), the actin tail formation result is on record as “did not block actin tail formation”, the “average number of actin tails per cell” value is on record as approximately 3 per cell, the “cells having no actin tails” value came to 30% and the “number of actin tails per cell” value is listed as “no detectable effects”. In addition, in the series on VV (strain WR), the “reduction of average number of actin tails per cell” value stood at 16 fold; the “viral replication (extranuclear DAPI staining) and transit of GFP-labeled virions to the cell periphery” value is given as “no effect”. For the same molecule, the “VV actin motility, actin tail formation or number” value in the series with VV (strain WR) (methanesulfonate) was “no discernable effect; also recorded: no difference in actin tail formation or number was evident”. Moreover, the “P24 day 7” value in the series on HIV-1 Bal (Cells + HIV-1 Bal + drug 1 μM, HIV-1 Bal alone 322 +/− 28) came to 287 ± 31 pg/mL. Besides, the “P24 day 14” value with HIV-1 Bal (Cells + HIV-1 Bal + drug 1 μM, HIV-1 Bal alone 956 +/− 34) came to 744 ± 27 pg/mL. In addition, in the series on HIV-1 Bal (Cells + HIV-1 Bal + drug 5 μM), the “P24 day 7” value worked out at 212 ± 44 pg/mL and the “P24 day 14” value was determined as 556 ± 28 pg/mL. In addition, in the series with HIV-1 Bal (Cells + HIV-1 Bal + drug 10 μM), the “P24 day 7” value was found to be 127 ± 22 pg/mL and the “P24 day 14” value amounted to 245 ± 31 pg/mL. In the series with HIV-1 Bal (Cells + drug 1 μM, no virus), the “P24 day 7” value is less than 10 pg/mL and the “P24 day 14” value is less than 10 pg/mL. In the series on HIV-1 Bal (Cells + drug 5 μM, no virus), the “P24 day 7” value is less than 10 pg/mL and the “P24 day 14” value is less than 10 pg/mL. In the series with HIV-1 Bal (Cells + drug 10 μM, no virus), the “P24 day 7” value is less than 10 pg/mL and the “P24 day 14” value is less than 10 pg/mL. Also, the “reduction of viral replication (p24 levels)” value with HIV-1 Bal (dose dependent, 1-10 μM) is given as “up to 4 fold”. In series [3], the “formation of comets apposed to plaques” value is recorded as “blocked the formation” and the “reduction in PFU of supernatant on BSC-40 cells” value was approximately 2 fold. In addition, the “weight and other adverse effects in uninfected animals” value in series [4] (100 mg/kg/day, subcutaneously implanted osmotic pumps) was “no loss in weight or other adverse effects”. The tolerability entry in [4] (intraperitoneal injection, up to 100 mg/kg/day in saline, up to 10 days) was “well tolerated”. Moreover, in series [4] (setting [7]), the “pathology upon necropsy with drug alone” value was “no overt pathology” and the “weight loss with drug alone” value is recorded as “no indication of weight loss”. Besides, in the series on VV [5], the “amount of virus produced (viral replication)” value is on record as “nearly equivalent amounts of virus”. Also, the “intercellular survival of M. tuberculosis” value in series [6] is on record as “increases the intercellular survival”. Besides, the plaque formation result in the series with VV-WR is “did inhibit plaque formation”.
As to `Cc1ccc(NC(=O)c2ccc(CN3CCN(Cc4ccccc4)CC3)cc2)cc1Nc1nccc(-c2cccnc2)n1` [STI-X], in the series on GFP-VV, the actin tail formation result was “failed to form actin tails”; the “percentage of cells containing DAPI-stained extranuclear viral replication factories” value is given as 4%; the “replication centers (DAPI staining or α-Ptyr pAb) and actin motility” value was “still evident; also recorded: no effect”; the “viral entry (GFP-labeled virions and EVP staining)” value is listed as “little detectable effect on viral entry”. Besides, in the series with VV-WR, the plaque formation result was “reduced” and the “tolerability by the cells in plaque assays” value is “well tolerated”.
